Read-outs that look alike come from different tables or passages of the source. Square brackets hold non-standard residues; d marks the D form. Peptide text beside a SMILES is read from it. NMeF = CN[C@@H](Cc1ccccc1)C(=O)O
System: SARS-CoV-2

| Molecule | % Inh. (% Inhibition of SARS-CoV-2) (10 µM) [%] | other results |
| --- | --- | --- |
| O=c1oc(-c2ccc(C(F)(F)F)cc2)nn1Cc1cc(Cl)ccc1O [BMS-191011] | 52.3 | – |
| O=C(/C=C/c1ccc2ccccc2n1)c1ccncc1 [PFK-015] | 101.3 | IC50: 7.03 µM; pIC50: 5.15 |
| O=S(=O)(c1cccc2c(Cl)cccc12)N1CCCNCC1 [ML-9] | 91.9 | – |
| niguldipine-(S)-(+) | 93.0 | – |
| COc1ccc(OC)c(CN(C(C)=O)c2cc(F)ccc2Oc2ccccc2)c1 [DAA-1106] | 91.0 | – |
| CCCCCC(O)c1cccc(OCc2ccc3ccccc3n2)c1 [REV-5901/L-655,238] | 113.5 | – |
| Rupatadine Fumarate | 72.1 | – |
| c1cncc(CN2CCC(n3ncc4c(N5CCOCC5)nc(-c5ccc6[nH]ccc6c5)nc43)CC2)c1 [WAY-600] | 99.1 | – |
| Cc1[nH]nc2ccc(-c3cncc(OC[C@@H](N)Cc4ccccc4)c3)cc12 [A-674563] | 53.3 | – |
| CNS(=O)(=O)Nc1nccc(Cc2c(C)c3ccc(Oc4ncccn4)cc3oc2=O)c1F [RO5126766 (CH5126766)] | 102.6 | IC50: 5.36 µM; pIC50: 5.27 |
| CSCC[C@H](NC(=O)[C@H](CC(C)C)NC(=O)[C@@H](Cc1c[nH]c2ccccc12)NC(=O)[C@H](Cc1ccccc1)N(C)C(=O)[C@@H](Cc1c[nH]c2ccccc12)NC(=O)[C@@H](N)CCCNC(=N)N)C(N)=O [Antagonist-G] (H-R[dW][NMeF][dW]LM-NH2; N-terminus and C-terminus assumed) | – | % Inh. (% Inhibition of SARS-CoV-2) (48 h, 10 μM): 58.0% |
| CC[N+](C)(CC)CCC[n+]1c(-c2ccccc2)c2cc(N)ccc2c2ccc(N)cc21.[I-].[I-] [propidium-iodide] | 69.7 | – |
| Skepinone-L | 86.1 | – |
| O=S(=O)(NCCCCCCc1ccccc1)c1cccc2c(Cl)cccc12 [SC-9] | 83.4 | – |
| CC(C)c1ccc2c(c1)CC[C@H]1[C@](C)(CN)CCC[C@]21C [lylamine] | 76.4 | – |
| CNC(=O)Nc1ccc(-c2nc(N3CC4CCC(C3)O4)c3cnn(C4CCC5(CC4)OCCO5)c3n2)cc1 [WYE-125132] | 99.7 | – |

| Molecule | % Inh. (% Inhibition of SARS-CoV-2) (10 µM) [%] | other results |
| --- | --- | --- |
| Cc1ncc(-c2ccnc(Nc3ccc(S(C)(=O)=O)cc3)n2)n1C(C)C [AZD5438] | 67.2 | – |
| Taltobulin (trifluoroacetate) | 83.8 | – |
| Cc1cc(C)c(NC(=O)C2CC3CCC2C3)c(C)c1 (centres unmarked) [ML-213] | 69.5 | – |
| Cl.O.O=CN1CCC(C(=O)NCCN2CCC(=C3c4ccccc4C=Cc4ccccc43)CC2)CC1 [AT-1015] | 75.4 | – |
| CC(C)(Cc1c[nH]c2ccc(Cl)cc12)NCCOc1ccccc1OCC1CC1 [RS-17053] | 103.3 | – |
| O=C(Nc1cnccc1Cl)N1CCN(Cc2ccc3c(c2)OC(F)(F)O3)CC1 [JNJ-42165279] | 94.9 | – |
| CO[C@@H](C)Cn1c(=O)n(C)c2cnc3ccc(-c4cncc(C(C)(C)O)c4)cc3c21 [LY3023414] | 92.7 | – |
| COc1cc2c(cc1OC)CN(C(=O)/C=C/c1c(-c3ccccc3)n(C)c3ncccc13)CC2 [SIS3] | 99.3 | – |
| Cc1ccc2cc(-c3c(C)ccc(C(=O)c4c(-c5ccccc5)n(C)n(-c5ccccc5)c4=O)c3N)ccc2n1 [AMG-PERK-44] | 127.9 | – |
| c1ccc(C(NCCNC(c2ccccc2)c2ccccc2)c2ccccc2)cc1 [AMN-082] | 71.9 | – |
| CCOC(=O)N1CCC(=C2c3ccc(Cl)cc3CCc3cccnc32)CC1 [LORATADINE] | – | % Inh (% inhibition of virus infection) (comparative experiments, Examples 1 and 2): 91.4% |
| Cc1ccc([N+](=O)[O-])cc1S(=O)(=O)N(C)/N=C/c1cnc2ccc(Br)cn12 [PIK-75] | 87.6 | – |
| Cn1c(Nc2ccc(C(F)(F)F)cc2)nc2cc(Oc3ccnc(-c4ncc(C(F)(F)F)[nH]4)c3)ccc21 [RAF265 (CHIR-265)] | 93.2 | – |
| COc1ccc(S(=O)(=O)N(CCO)c2ccccc2CN(C)C/C=C/c2ccc(Cl)cc2)cc1 [KN-93] | 88.4 | – |
| COc1ccc(C(=O)N2CCCc3cc(C4=NNC(=O)SC4C)ccc32)cc1OC (centres unmarked) [EMD-53998] | 79.6 | – |

Reference: US20230126310A1 (priority 2020, published 2023)
